Read-outs that look alike come from different tables or passages of the source.
Columns and labels:
[1] = tested on: human hepatoma cells (PLC/PRF/5 cells); conditions: Hager, reference 66; cited from earlier work
KB cells = conditions: Hager, reference 66; cited from earlier work
CD-14 receptor = molecular target: T1, CD-14 receptor (Homo sapiens, UniProt P08571); test: serum-mediated binding of FITC-labeled lipopolysaccharide to CD-14 transfected Chinese hamster ovary cell lines; type: cell-based; conditions: CD14+ cells
T1 construct: expressed in transfected cells; host or cells: Chinese hamster ovary cell lines
T1 sequence (P08571 20-345): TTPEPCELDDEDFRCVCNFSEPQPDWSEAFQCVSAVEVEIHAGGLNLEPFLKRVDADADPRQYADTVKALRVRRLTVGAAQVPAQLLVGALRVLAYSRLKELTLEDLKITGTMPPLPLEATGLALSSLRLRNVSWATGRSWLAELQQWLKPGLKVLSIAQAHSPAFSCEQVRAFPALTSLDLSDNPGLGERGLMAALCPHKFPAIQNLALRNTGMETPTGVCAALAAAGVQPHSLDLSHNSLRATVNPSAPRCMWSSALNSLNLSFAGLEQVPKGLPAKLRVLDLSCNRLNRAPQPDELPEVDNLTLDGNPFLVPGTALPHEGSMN
Method: Methods: The test was performed according to Grunwald (CD-14 als Rezeptor für Endotoxin: in vitro-Untersuchungen zu Bindungsmodalitaten von LPS und zur Beeinflussung der Expression. Dissertation Ernst-Moritz-Arndt-Universität Greifswald 1993). For the tests, cell lines from ovaries of Chinese hamsters were used which express the CD-14 receptor after transfection of the CD-14 gene. The lipopolysaccharide was labeled with FITC so that the binding to the receptor could be determined by measuring the fluorescence intensity.

influenza virus type A = test: antiviral activity
[2] = tested on: Aeromonas salmonicida subsp. salmonicida 67 A 1; test: agar diffusion test on fish-pathogenic bacteria; type: cell-based
[3] = tested on: Aeromonas hydrophila DSM 30019; test: agar diffusion test on fish-pathogenic bacteria; type: cell-based
[4] = tested on: Vibrio anguillarum ATCC 1188; test: agar diffusion test on fish-pathogenic bacteria; type: cell-based
[5] = tested on: oxygen free-radical release; test: free-radical scavenging by luminol chemiluminescence in zymosan-stimulated human blood; type: cell-based; conditions: 10 μg/ml
Method: The proof was established as follows:
A: […] was preincubated with […] of PBS+luminol (0.33 mM final) at 37° C. for 20 min.
B: 30 μl of human blood was preincubated with […] of PBS+luminol (0.33 mM final) and […] of substance dilution at 37° C. for 20 min.
To A was pipetted 20 μl of a 1:100 dilution of the extract of Example 11 and 20 μl of zymosan (10 mg/ml).
To B was pipetted 20 μl of zymosan (10 mg/ml).
As a control, PBS was used instead of zymosan as a stimulator with and without substance in charges A and B. After intensive mixing, the kinetics of the luminescence were measured over 60 min. The examinations were performed on two different days with blood from two different blood donors.
Methods: The free-radical scavenging function of the active substances of formula 1, ganomycin A and ganomycin B, broadens the possibilities of medicinal use. The proof was established as in the examination of the extracts according to Example 48.

[6] = tested on: peritoneal mast cells of rats; conditions: 2 mg/ml; Hager, reference 31; cited from earlier work
S. aureus = test: agar diffusion test
Method: In the first stage of examination, the agar diffusion test was employed. The extracts and substances to be tested were respectively dissolved using appropriate solvents (dichloromethane, methanol and water) and applied to filter paper sheets in different concentrations. Comparative sheets soaked with 25 μl of the corresponding solvent served as a control. Ampicillin (10 μg/sheet) was employed as a reference substance. The dried filter paper sheets were finally placed onto agar plates. For the basic screening, nutrient agar II (VEB Immunpraparate, Berlin, Germany) was employed, and for the examination on strains isolated from patient material, Mueller-Hinton II agar (Becton Dickinson Microbiology Systems, Cockeysville, USA) was employed. Using an inoculation wire loop, a pinheadful of test germ culture was suspended in 3 ml of a sterile 0.90% NaCl solution. Subsequently, 200 μl of the germ suspension was added to 20 ml of sterile, liquefied and slightly warm nutrient agar and cast into Petri dishes having a diameter of 10 cm. After placing the sheets onto the congealed agar, the plates were preincubated at 8° C. for about 2 to 3 hours, followed by incubation of the plates in an incubator at 37° C. for 24 hours. Micrococcus flavus was an exception. This culture was stored only at room temperature because the germ reaches its optimum growth at 20° C.
The evaluation of the plates was effected by measuring the diameters of the inhibition halos. All operations were done under aseptic conditions.

S. haemolyticus = test: agar diffusion test on pathogens of Gram-positive infections; conditions: S. haemolyticus (multiresistant strains isolated from patient material)
Method: (§1) In the first stage of examination, the agar diffusion test was employed. The extracts and substances to be tested were respectively dissolved using appropriate solvents (dichloromethane, methanol and water) and applied to filter paper sheets in different concentrations. Comparative sheets soaked with 25 μl of the corresponding solvent served as a control. Ampicillin (10 μg/sheet) was employed as a reference substance. The dried filter paper sheets were finally placed onto agar plates. For the basic screening, nutrient agar II (VEB Immunpraparate, Berlin, Germany) was employed, and for the examination on strains isolated from patient material, Mueller-Hinton II agar (Becton Dickinson Microbiology Systems, Cockeysville, USA) was employed. Using an inoculation wire loop, a pinheadful of test germ culture was suspended in 3 ml of a sterile 0.90% NaCl solution. Subsequently, 200 μl of the germ suspension was added to 20 ml of sterile, liquefied and slightly warm nutrient agar and cast into Petri dishes having a diameter of 10 cm. After placing the sheets onto the congealed agar, the plates were preincubated at 8° C. for about 2 to 3 hours, followed by incubation of the plates in an incubator at 37° C. for 24 hours. Micrococcus flavus was an exception. This culture was stored only at room temperature because the germ reaches its optimum growth at 20° C. […]

Enterococci = test: as above; conditions: Enterococci (multiresistant strains isolated from patient material)
Method: as §1

[7] = molecular target: angiotensin-converting enzyme (Homo sapiens, UniProt P12821); conditions: in vitro; Hager, reference 39; cited from earlier work
angiotensin-converting enzyme, sequence (P12821 30-1306, species assumed): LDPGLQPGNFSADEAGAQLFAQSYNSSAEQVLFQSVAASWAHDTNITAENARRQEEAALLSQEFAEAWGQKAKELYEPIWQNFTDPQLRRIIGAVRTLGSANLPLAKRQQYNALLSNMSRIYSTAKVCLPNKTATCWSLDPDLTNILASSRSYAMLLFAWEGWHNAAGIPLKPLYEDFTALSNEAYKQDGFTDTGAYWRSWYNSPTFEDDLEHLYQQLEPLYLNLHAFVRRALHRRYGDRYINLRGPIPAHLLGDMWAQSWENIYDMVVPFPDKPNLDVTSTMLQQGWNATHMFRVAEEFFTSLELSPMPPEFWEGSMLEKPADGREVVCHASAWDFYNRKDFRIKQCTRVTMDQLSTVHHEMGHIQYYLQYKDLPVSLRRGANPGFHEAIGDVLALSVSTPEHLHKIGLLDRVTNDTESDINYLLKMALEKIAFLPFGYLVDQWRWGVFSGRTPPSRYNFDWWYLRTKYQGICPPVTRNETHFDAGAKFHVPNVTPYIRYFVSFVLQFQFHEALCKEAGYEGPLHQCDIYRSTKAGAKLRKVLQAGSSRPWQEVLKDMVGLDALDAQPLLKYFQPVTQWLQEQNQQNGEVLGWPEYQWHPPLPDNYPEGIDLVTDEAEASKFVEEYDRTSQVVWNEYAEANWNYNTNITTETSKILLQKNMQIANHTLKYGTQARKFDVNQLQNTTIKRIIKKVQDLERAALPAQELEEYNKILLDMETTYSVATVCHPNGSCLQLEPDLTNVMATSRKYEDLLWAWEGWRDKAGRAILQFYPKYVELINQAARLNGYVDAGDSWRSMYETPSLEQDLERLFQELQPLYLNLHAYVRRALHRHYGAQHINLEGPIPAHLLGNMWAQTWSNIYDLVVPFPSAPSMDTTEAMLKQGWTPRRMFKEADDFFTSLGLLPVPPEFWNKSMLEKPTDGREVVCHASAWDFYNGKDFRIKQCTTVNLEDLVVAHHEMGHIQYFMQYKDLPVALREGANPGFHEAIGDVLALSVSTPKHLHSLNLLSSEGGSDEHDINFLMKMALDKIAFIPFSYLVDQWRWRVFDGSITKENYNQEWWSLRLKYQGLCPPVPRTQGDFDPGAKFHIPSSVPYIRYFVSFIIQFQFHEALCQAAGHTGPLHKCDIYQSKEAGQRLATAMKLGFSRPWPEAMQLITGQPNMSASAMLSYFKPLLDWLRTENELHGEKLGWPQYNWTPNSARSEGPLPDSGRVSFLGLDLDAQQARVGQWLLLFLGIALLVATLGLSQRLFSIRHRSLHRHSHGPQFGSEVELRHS

Method for S. epidermidis: Methods: Extracts according to Example 9 in a concentration of 2 mg/l were dropped onto standardized test plates for the resistance assay for the commercially available antibiotics amicazin, trimethroprim and fusidinic acid (Sensi-Disk Antibiotics Test Plates, Becton Dickinson Microbiology Systems, Cockeysville, USA). The antibacterial activity was determined according to Example 1 on multiresistant coagulase-negative staphylococci isolated from patient material.

CC(C)[C@@H](C)C=C[C@@H](C)[C@H]1CC[C@H]2C3=CCC4C[C@H](O)[C@@H](O)C[C@]4(C)[C@@]3(O)CC[C@]12C (stereo partly drawn) [ergosta-7,22-diene-2β,3α,9α-triol]
ED50 for the hepatoma cells [1]: 1170 µg/mL
ED50 for KB cells (KB cells): 0.89 µg/mL

C/C(=C\CC[C@@H](C)[C@H]1CC[C@@]2(C)C3=C(CC[C@]12C)[C@@]1(C)CC[C@H](O)C(C)(C)[C@@H]1CC3=O)CO [Ganoderone B, 3,26-dihydroxylanosta-8,24-diene-7-one]
inhibition of the lipopolysaccharide binding (in words) (CD-14 receptor): inhibits
antiviral activity against influenza virus type A (influenza virus type A): has antiviral activity

ganoderaldehyde A
ED50 for the hepatoma cells [1]: 10.99 µg/mL
ED50 for KB cells (KB cells): 9.75 µg/mL

CC(=CCCC(C)=CCCC(=CCc1cc(O)ccc1O)C(=O)O)CO [Ganomycin A, 2-[2-(2,5-dihydroxyphenyl)ethylidene]-11-hydroxy-6,10-dimethylundeca-5,9-dienic acid]
Diameter of inhibition halo [2]: 10 mm
Diameter of inhibition halo [3]: 15 mm
Diameter of inhibition halo [4]: 10 mm
inhibition of the lipopolysaccharide binding (in words) (CD-14 receptor): causes inhibition
luminol-induced and spontaneous oxygen free-radical release [5]: inhibit

ganoderic acid C
reduction of 48/80-induced histamine release [6]: 70%
reduction of Con-A-induced histamine release [6]: 85%

CC(CC(=O)C[C@@H](C)[C@H]1CC(=O)[C@@]2(C)C3=C(C(=O)C[C@]12C)[C@@]1(C)CCC(=O)C(C)(C)[C@@H]1C[C@@H]3O)C(=O)O (some centres unmarked) [ganoderic acid D]
reduction of 48/80-induced histamine release [6]: 80%
reduction of Con-A-induced histamine release [6]: 80%

CC(C)=CCCC(C)=CCCC(=CCc1cc(O)ccc1O)C(=O)O [Ganomycin B, 2-[2-(2,5-dihydroxyphenyl)ethylidene]-6,10-dimethylundeca-5,9-dienic acid]
Diameter of inhibition halo [2]: 12 mm
Diameter of inhibition halo [3]: 17 mm
Diameter of inhibition halo [4]: 26 mm
inhibition of the lipopolysaccharide binding (in words) (CD-14 receptor): causes inhibition
luminol-induced and spontaneous oxygen free-radical release [5]: inhibit
Inhibition halo (S. aureus; S. aureus (MRSA strains isolated from patient material)): 10-16 mm
Inhibition halo (S. aureus; S. aureus ATCC 6538): 30 mm
Inhibition halo (S. aureus; S. aureus ATCC 25923): 25 mm
Inhibition halo (S. aureus; S. aureus ATCC 29213): 22 mm
Inhibition halo (S. aureus; S. aureus reference strain “North-German Strain” (Smith Kline Beecham)): 16 mm
Inhibition halo (S. haemolyticus): 12-16 mm
Inhibition halo (Enterococci): 10-14 mm
Inhibition halo (S. epidermidis; S. epidermidis 125, extract 2 mg/l dropped onto antibiotic test plates): 16 mm
Inhibition halo (S. epidermidis; S. epidermidis 473, extract 2 mg/l dropped onto antibiotic test plates): 20 mm
Inhibition halo (S. epidermidis; S. epidermidis 847, extract 2 mg/l dropped onto antibiotic test plates): 16 mm
Inhibition halo (S. epidermidis; S. epidermidis (multiresistant strains isolated from patient material)): 16-20 mm

CC(=O)O[C@@H]1C(=O)C2=C(C(=O)C[C@H]3C(C)(C)C(=O)CC[C@]23C)[C@]2(C)C(=O)C[C@H]([C@H](C)CC(=O)CC(C)C(=O)O)[C@@]12C (some centres unmarked) [ganoderic acid F]
IC50 [7]: 4.7 µM

Source: patent publication US6726911B1, “Biologically active compounds of Ganoderma pfeifferi DSM 13239” (Ganomycin, priority 1999, dated 2004)
